Key:
[1] = system: Anas platyrhynchos; details: acute; oral; unspecified; mortality
[2] = system: Apis mellifera; details: acute, mortality
[3] = system: Bibionidae; details: chronic/long-term; duration: 40 days
[4] = system: Colinus virginianus
[5] = system: Daphnia magna; details: chronic/long-term; duration: 21 days
[6] = system: Oncorhynchus mykiss; details: acute; duration: 96 hours; mortality
[7] = system: Pimephales promelas; details: chronic/long-term; duration: 32 days
[8] = system: Plant; details: not reported; no effects
[9] = system: Pontoscolex corethrurus; details: for NOEC: chronic/long-term
[10] = system: Rattus norvegicus
[11] = system: Aphidius rhopalosiphi; assay: LR50; higher = less toxic; details: not reported; mortality
[12] = system: Typhlodromus pyri; assay: LR50; higher = less toxic; details: not reported; mortality

Question: For `COc1cc(C)c(C(=O)c2c(OC)ccc(Br)c2C)c(OC)c1OC` [Metrafenone], which LD50 [1] is on record?
Answer: Its LD50 is over 2020 mg/kg-day.

Question: And the LD50 ([2]; dermal)?
Answer: Its LD50 is over 100 µg/piece.

Question: And the LD50 ([2]; oral, unspecified)?
Answer: Its LD50 is over 114 µg/piece.

Question: What about the NOEC [3] of the same compound?
Answer: The NOEC was 1 mg/L.

Question: What about the NOEC ([4]; reproduction developmental) of the same compound?
Answer: The NOEC was 125 mg/kg-day.

Question: What about the NOEC ([4]; short-term, oral, diet) of the same compound?
Answer: The NOEC was over 948 mg/kg-day.

Question: What about the NOEC [5] of the same compound?
Answer: Its NOEC is 0.225 mg/L.

Question: And the LC50 [6]?
Answer: Its LC50 is over 0.82 µg/mL.

Question: What about the NOEC [7] of the same compound?
Answer: The NOEC was 0.228 mg/L.

Question: What about the LEL [8] of the same compound?
Answer: Its LEL is 300 g/ha.

Question: What about the LC50 ([9]; acute, mortality) of the same compound?
Answer: The LC50 was over 250 mg/kg.

Question: What about the NOEC [9] of the same compound?
Answer: The NOEC was 10.4 mg/kg.

Question: What about the NOEC ([9]; reproduction) of the same compound?
Answer: The NOEC was 3 mg/kg.

Question: And the LD50 ([10]; acute, oral, mortality)?
Answer: Its LD50 is over 5000 mg/kg-day.

Question: What about the NOAEL ([10]; chronic, duration: 2 years, oral, histopathology: neoplastic) of the same compound?
Answer: Its NOAEL is 25 mg/kg-day.

Question: What about the NOAEL ([10]; reproduction developmental) of the same compound?
Answer: The NOAEL was 811 mg/kg-day.

Question: What about the NOAEL ([10]; subchronic, duration: 13 weeks, oral, organ weight) of the same compound?
Answer: The NOAEL was 43 mg/kg-day.

Question: What about the LR50 [11] of the same compound?
Answer: Its LR50 is over 300 g/ha.

Question: And the LR50 [12]?
Answer: Its LR50 is over 500 g/ha.

Reference: EPA's ToxValDB 9.5 (doi:10.2903/j.efsa.2006.58r)
